The subject of assay [1] is EPO. The assay can be described thus: Mouse Serum EPO Assay (mouse ischemic hindlimb study). It counts as in vivo. The settings on record: for EPO response: in vivo response, mouse serum EPO. The procedure:
(§1) Mouse Ischemic Hindlimb Study
(§2) All animal work is conducted in accordance with the Guide for the Care and Use of Laboratory Animals (National Academy of Sciences; Copyright® 1996) and the Institutional Animal Care and Use Committee guidelines at Procter and Gamble Pharmaceuticals. We studied 9-10 week old male C57B1/6 mice from Charles River Laboratory (Portage, Mich.). The mice are orally dosed with vehicle (aqueous carbonate buffer, 50 mM; pH 9.0) or compound 1 in vehicle at 50 mg/kg or 100 mg/kg. The animals are dosed three times: day 1 at Sam and 5 pm, day 2 at 8 am. One hour after the first dose, unilateral arterial ligation is performed under anesthesia using isoflurane. The femoral artery is ligated proximal to the origin of the popliteal artery. The contralateral limb underwent a sham surgical procedure. Ligation is performed in an alternating fashion between right and left hindlimbs. Two hours after Sam dosing on day 2, we obtained blood by ventricular stick while the mice are anesthetized with isoflurane. Serum samples for EPO analysis are obtained using gel clot serum separation tubes. Heart, liver, and gastrocnemius muscles are harvested, snap-frozen in liquid nitrogen, and stored in −80° C. until use.
The mouse serum EPO is detected using Mouse Quantikine Erythropoietin ELISA kit from R&D Systems according to manufacturer's instructions.

The test system of assay [2] is HIF-1α. Description: Mouse Tissue HIF Western Blot Analysis. The settings on record: FIG. 1. It counts as in vivo. The procedure:
as §1, §2
Mouse Tissue HIF Western Blot Analysis
Tissues from mice stored at −80° C. are powdered with mortar and pestle chilled with liquid nitrogen. […]
Background: In western blotting, separated proteins are transferred to a membrane and probed.

Regarding `Cc1ccc(-c2ccc(C(=O)NCC(=O)O)c(O)c2)cc1` [[(3-Hydroxy-4′-methyl-biphenyl-4-carbonyl)-amino]-acetic acid], the EPO response result in assay [1] was “yes”.

Regarding `Cc1ccc(-c2cnc(C(=O)NCC(=O)O)c(O)c2)cc1` [[(3-Hydroxy-5-(4-methylphenyl)pyridine-2-carbonyl)amino]-acetic acid], the EPO response result in assay [1] is “yes”. `COC(=O)CNC(=O)c1ncc(-c2ccccc2Cl)cc1O` [{[5-(2-Chlorophenyl)-3-hydroxy-pyridine-2-carbonyl]-amino}-acetic acid methyl ester]: the EPO response entry in assay [1] is reported as “yes”.

Regarding `O=C(O)CNC(=O)c1ncc(-c2ccccc2Cl)cc1O` [{[5-(2-Chlorophenyl)-3-hydroxypyridine-2-carbonyl]amino}-acetic acid], in assay [1], the EPO response entry is listed as “yes”.

As to `COC(=O)CNC(=O)c1ncc(-c2cccc(Cl)c2)cc1O` [{[5-(3-Chloro-phenyl)-3-hydroxy-pyridine-2-carbonyl]-amino}acetic acid methyl ester], the EPO response entry in assay [1] is reported as “yes”. On to `O=C(O)CNC(=O)c1ncc(-c2cccc(Cl)c2)cc1O` [{[5-(3-Chlorophenyl)-3-hydroxypyridine-2-carbonyl]amino}-acetic acid], for which the EPO response result in assay [1] was “yes”. For the same molecule, the “erythropoietin level versus vehicle in mouse serum” value in assay [1] (mouse serum after oral dosing, FIG. 2) is on record as “elevated”. The “stabilization of HIF-1α in mouse liver (immunoblot of nuclear extracts)” value in assay [2] is “stabilization of HIF-1α”.

Take `N#Cc1ccc(-c2cnc(C(=O)NCC(=O)O)c(O)c2)cc1` [{[5-(4-Cyanophenyl)-3-hydroxypyridine-2-carbonyl]amino}-acetic acid]: the EPO response entry in assay [1] is “yes”. For “{[5-(4-Chlorophenyl)-3-hydroxypyridine-2-carbonyl]amino}-acetic acid”, the EPO response entry in assay [1] was “yes”.

Values taken from patent US8722895B2, “Prolyl hydroxylase inhibitors and method of use” (Akebia Therapeutics Inc., priority 2006, dated 2014).
